Measurements from patent publication US6890887B2, “Synergistic herbicidal methods and compositions comprising dinitroaniline and imidazolinone compounds” (BASF Aktiengesellschaft, priority 1999, dated 2005).

Key:
Assay in all cases: Preemergence field plot evaluation of percent weed control
Type in all cases: in vivo
Details in all cases: visual, 60 days after application
Setaria verticilliata = tested on: Setaria verticilliata
Description: (§1) In the following examples, synergism is determined by the Colby^1 method, i.e. the expected (or predicted) response of the combination is calculated by taking the product of the observed response for each individual component of the combination when applied alone divided by 100 and subtracting this value from the sum of the observed response for each component when applied alone. Synergism of the combination is then determined by comparing the observed response of the combination to the expected (or predicted) response as calculated from the observed response of each individual component alone.
(§2) The foregoing is illustrated mathematically below, wherein a combination, C, is composed of component A plus component B and Obs. designates the observed response of the combination C. [formula]
(§3) Formulations containing imazamox^1, pendimethalin^2 and an imazamox/pendimethalin combination^3 are diluted with water and applied preemergence at volumes of 200 L/ha to 400 L/ha to field plots to provide the rates shown in Table I. 60 days after application, the plots are visually evaluted for percent weed control. The results are summarized in Table I. If more than one plot is included in an evaluation, the results are averaged.
(§4) ^1 BOLERO® 40 SL, an imazamox aqueous concentrate commercially available from American Cyanamid Company, Parsippany, N.J.
(§5) ^2 STOMP® 400 SC, a pendimethalin suspension concentrate commercially available from American Cyanamid Company, Parsippany, N.J.
(§6) ^3 An emulsifiable concentrate containing imazamox and pendimethalin.

Poa annua = tested on: Poa annua
Description: as §1, §2, §3, §4, §5, §6

Polygonum persicaria = tested on: Polygonum persicaria
Description: as §1, §2, §3, §4, §5, §6

| Compound | % Weed Control Observed (Setaria verticilliata; imazamox 75 g/ha alone) | % Weed Control Observed (Poa annua; imazamox 75 g/ha alone) | % Weed Control Observed (Polygonum persicaria; imazamox 75 g/ha alone) | % Weed Control Observed (Setaria verticilliata; pendimethalin 1,125 g/ha alone) | % Weed Control Observed (Poa annua; pendimethalin 1,125 g/ha alone) | % Weed Control Observed (Polygonum persicaria; pendimethalin 1,125 g/ha alone) |
| --- | --- | --- | --- | --- | --- | --- |
| COCc1cnc(C2=NC(C)(C(C)C)C(=O)N2)c(C(=O)O)c1 (stereo not drawn) [Imazamox, 2-(4-isopropyl-4-methyl-5-oxo-2-imidazolin-2-yl)-5-(methoxymethyl)nicotinic acid] | 45% | 68% | 66% | – | – | – |
| CCC(CC)Nc1c([N+](=O)[O-])cc(C)c(C)c1[N+](=O)[O-] [Pendimethalin] | – | – | – | 86% | 63% | 76% |
